Reference: article PMC4861903, “Synthesis of a highly water-soluble acacetin prodrug for treating experimental atrial fibrillation in beagle dogs” (Scientific Reports, 2016)

Assays:
[1] = Ex vivo bioconversion of acacetin prodrug in rat liver microsome; assay type: in vitro ADME; settings: 37 °C, n = 3
Protocol: The ex vivo bioconversion of acacetin prodrug was determined in rat plasma or rat hepatic microsome that contains high content alkaline phosphatase, as described previously[30] and in Supplemental Materials. The in vivo bioconversion of acacetin prodrug was determined in beagle dogs as described in Supplemental Materials. […]
Bioconversion of acacetin prodrug was also determined in rat hepatic microsomes containing high content alkaline phosphatase,5 as described previously.6 Sprague-Dawley rat liver microsomes were purchased from Invitrogen (Hong Kong, China). The reaction mixture was prepared in 50 mM Tris-HCl buffer (pH = 7.4) with 1 mM NADPH (nicotinamide adenine dinucleotide phosphate) and 0.5 mg/mL (total protein) microsomes. Prodrug solutions were added to the microsomes reaction mixture with a final concentration of 5 µg/mL. The reaction solution was incubated in a water bath at 37℃ and shaken at 60 rpm for 1 h. The samples were collected at 0, 1, 2, 15, 30 and 60 min. The reaction was terminated by adding 200 μL cold methanol containing internal standard (pentamethylquercetin, 50 ng/ml). After centrifugation at 12000 g for 30 min, the supernatant was immediately analyzed by HPLC. […]

[2] = tested on: experimental AF induced by vagal nerve stimulation and burst atrial pacing; assay: Vagal nerve stimulation-induced AF in beagle dogs; assay type: in vivo; settings: for AF duration in animals with effective AF termination: vehicle 30 min
Protocol: The anti-AF effect of acacetin prodrug was investigated in AF model (with AF duration of 30 min), which was established in beagle dogs with modified procedure as described previously. After three-repeats of stable AF (30 min), drug treatment was applied on 4th repeat (Fig. 5A). Acacetin prodrug dissolved in 5% glucose was administrated intravenously after 1 min of onset of AF induction. A bolus of one third dosage was infused within 2 min, then two third of the dosage (3, 6, and 12 mg/kg) was continuously infused for 18 min. The AF disappeared within 30 min before stopping bilateral vagal nerve stimulation was considered to be effective termination of AF (Fig. 5B). Blood samples were collected at different time points (5, 10, 20, 30, 45 and 60 min) during the experiment to determine the plasma acacetin concentrations. Figure 5C illustrates the termination rate of AF by different doses of acacetin prodrug. […] In addition, AF induction was repeated at 40 min after discontinuous prodrug infusion. AF was terminated at 25.3 ±1.8 min after re-induction (P < 0.01 vs. vehicle) in these animals (n = 15) with drug treatment, but not in animals treated with 5% glucose vehicle (30 min duration). However, the duration of AF was longer than during the initial drug administration (25.3 ± 1.8 min vs.17.1 ± 1.3 min, P < 0.01).
Experimental AF was induced by vagal nerve stimulation in beagle dogs with modified procedure as described previously. Briefly, AF was generated by a 10-s burst atrial pacing with a 4-fold diastolic threshold potential (60-ms interval) after 30 s vagal nerve stimulation. If AF persisted for 30 min, it was terminated by stopping vagal nerve stimulation. The stable AF lasting for 30 min was repeated for three times (20 min interval), drug test (vehicle or different doses of acacetin prodrug) was then performed. A shortened duration of AF during the continuous vagal nerve stimulation was considered to be effective termination of AF for drug treatment. […]
China) were anesthetized with pentobarbital (40 mg/kg, i.v.), supplemented as necessary during the experiment. The animal was kept on an operation table maintained at 37°C, intubated and ventilated with room air. The left femoral vein was cannulated to maintain fluid balance, anesthesia, and test articles. Lead II electrocardiogram (ECG) was continuously monitored with using a digital recording system (RM6240, Chengdu Instruments, China)
An action potential (MAP) recording- and pacing-catheter (Boston Scientific Ltd) was introduced to the right atrium through right jugular vein, and an electrical pacing catheter was introduced to left ventricle via […] for ventricular pacing (when necessary).
Bilateral cervical vagal nerves were isolated and bipolar electrodes were placed to stimulate efferent vagal nerves with 15 Hz, 0.2 ms duration voltage step (80-100% threshold) to induce a 50% reduction of heart rate. Ventricular pacing was performed with 2-ms voltage pulses (2.5 Hz, 150% diastolic threshold) when vagal nerves were continuously stimulated. Experimental atrial fibrillation (AF) model is established in beagle dogs with modified procedure as described previously.8-10 Briefly, AF was generated by a 10-s burst atrial pacing with a 4-fold diastolic threshold potential (60 ms interval) after 30 s vagal nerves stimulation. If AF persisted for 30 min, AF was terminated by stopping vagal nerve stimulation. After stable persistent AF lasing for 30 min was repeated for three times (20 min interval), drug test (vehicle or different doses of phosphate sodium salt prodrug of acacetin) was performed. A shortened AF duration during the continuous vagal stimulation was considered to be effective termination of AF. All the biological signals were recorded using the digital recording system (RM6240, Chengdu […]
Instruments, China). […]
Sixty ICR mice (male, 30; female, 30) were stratified […]

COc1ccc(-c2cc(=O)c3c(O)cc(OP(=O)([O-])[O-])cc3o2)cc1.[Na+].[Na+] [acacetin prodrug, phosphate sodium salt of acacetin]
prodrug converted into acacetin ([1]; 1 min incubation): 60%
prodrug converted into acacetin ([1]; 30 min incubation): 100%
termination rate of AF ([2]; 3 mg/kg i.v. (1/3 bolus in 2 min, 2/3 infused 18 min), 3 of 6 dogs, vehicle 0%): 50%
termination rate of AF ([2]; 6 mg/kg i.v. (1/3 bolus in 2 min, 2/3 infused 18 min), 6 of 8 dogs, P < 0.05 vs. vehicle): 75%
AF duration in animals with effective AF termination ([2]; 6 mg/kg i.v.): 17.2 ± 2.3 min
termination rate of AF ([2]; 12 mg/kg i.v. (1/3 bolus in 2 min, 2/3 infused 18 min), 5 of 7 dogs, P < 0.05 vs. vehicle): 71.4%
AF duration in animals with effective AF termination ([2]; 12 mg/kg i.v.): 15.5 ± 2.7 min
AF terminated at, after re-induction ([2]; AF induction repeated at 40 min after discontinuous prodrug infusion, all doses pooled, n = 15, P < 0.01 vs. vehicle (30 min)): 25.3 ± 1.8 min
duration of AF during the initial drug administration ([2]; all doses pooled, animals with drug treatment): 17.1 ± 1.3 min
